Results published in patent US9393250B2, “Phthalocyanine compounds useful as RecA inhibitors and methods of using same” (University of Saskatchewan, priority 2012, dated 2016).
Counter-ions that a name gives are not always drawn.

Key:
[1] = test system: E. coli strain ATCC25922; assay: Antibiotic sensitivity assay (CFUs/ml), E. coli; type: cell-based, Escherichia coli; settings: for decrease in CFUs relative to ciprofloxacin treatment alone: compound 25 μM + ciprofloxacin 40 nM
Description: (§1) Bacterial cultures were diluted to 10^5 cells/mL in LB broth (ATCC25922) or MH broth (ATCC27853, ATCC29212, ATCC29213). Antibiotics and/or phthalocyanines were added at indicated concentrations and the culture was incubated at 37° C. Samples were collected at 0, 24, 48, and 72 hours and plated on LB agar (ATCC25922) or tryptic soy blood agar (ATCC27853, ATCC29212, ATCC29213) to determine CFUs/ml.
The ability of 4,4-Fe-PcTs and 3,4-Cu-PcTs to potentiate the activity of ciprofloxacin (abbreviated “CFX”) was tested. Ciprofloxacin inhibits DNA gyrase in bacteria, causing accumulation of double-stranded DNA breaks (DSBs) and inducing the SOS response. The inventors characterized the ability of 4,4-Fe-PcTs and 3,4-Cu-PcTs to potentiate the activity of ciprofloxacin in the pathogenic E. coli strain ATCC25922, which was used previously by Cirz et al. to evaluate the role of SOS response proteins in antibiotic resistance.

[2] = test system: Pseudomonas aeruginosa ATCC27853; assay: Antibiotic sensitivity assay (CFUs/ml), P. aeruginosa; type: cell-based; settings: ciprofloxacin 6.5 μM
Description: as §1
To confirm that the activity of 4,4-Fe-PcTs was not specific to the gram-negative ATCC25922 E. coli, the ability of 4,4-Fe-PcTs to potentiate the activity of ciprofloxacin in another gram-negative (Pseudomonas aeruginosa ATCC27853) strain and two gram-positive (Staphylococcus aureus ATCC29213 and Enterococcus faecalis ATCC29212) strains was evaluated.

[3] = test system: ATCC25922 E. coli; assay: Ciprofloxacin resistance assay and reconstruction assay (in vitro mutagenesis); type: cell-based, Escherichia coli
Description: An in vitro mutagenesis assay [1] was used to measure the ability of 4,4-Fe-PcTs to block the acquisition of ciprofloxacin-induced resistance in ATCC25922 E. coli. ATCC25922 cells were plated on media containing ciprofloxacin in the presence or absence of 4,4-Fe-PcTs and cultured for 10 days. Colonies that appeared early in the assay (days 1 and 2) are believed to arise from pre-existing ciprofloxacin resistance mutations [1]. Colonies that appear later in the incubation (days 3 to 8) are due to ciprofloxacin resistance mutations acquired during exposure to ciprofloxacin or pre-existing mutations with a slow growth phenotype [1].
To distinguish between these two types of mutants, a reconstruction assay that tests for the time it takes for colonies to appear in the presence of ciprofloxacin was used. Colonies that appear at least two days faster than they appeared in the original ciprofloxacin mutagenesis screen were classified as colonies that acquire resistance after exposure to ciprofloxacin [1]. Colonies that appeared in the same number of days as in the ciprofloxacin resistance assay were classified as colonies with pre-existing mutations [1].
Twenty-five independent colonies of ATCC2592 were used to inoculate 25 LB broth cultures that were incubated at 37° C. for 25 hours. Viable cell counts in these cultures were determined by plating serial dilutions onto LB agar plates. One hundred microliters from each culture (˜10^8 cells) were plated in duplicate on LB agar containing ciprofloxacin (CFX) (40 nM) or ciprofloxacin (40 nM) and 4,4-Fe-PcTs (25 μM) (CFX+4,4-Fe-PcTs). Three additional 100 μL aliquots from three cultures were also plated on the same media to determine the number of viable cells per day. At 24 hour intervals, visible colonies were counted, removed from the plate, and stored at −80° C. for later use in the reconstruction assay and sequencing. Every 24 hours, in parallel with the resistance assay, small plugs of agar between visible colonies were excised from resistance assay plates. Agar plugs were homogenized in M9 buffer. Dilutions were plated in duplicate on LB plates to determine the total number of viable cells per day. The cells were also plated on LB containing CFX (40 nM) to determine if any CFX-resistant colonies remained after excision [1].
Reconstruction assays were used to determine whether ciprofloxacin resistant colonies were due to post-exposure mutation or due to mutation prior to ciprofloxacin exposure. Ciprofloxacin resistant clones isolated from the resistance assay were grown to saturation in LB media in 96 well plates. Cultures were then replica-plated in duplicate using a 96-pin replicator on LB plates to confirm viability and LB plates containing ciprofloxacin (40 nM) to confirm ciprofloxacin resistance. Ciprofloxacin-resistant clones that were isolated in the presence 4,4-Fe-PcTs were replica plated on LB and LB containing 4,4-Fe-PcTs (25 μM) and ciprofloxacin (40 nM). Clones that were resistant before ciprofloxacin exposure were defined as clones that formed colonies on the ciprofloxacin-containing media in the same number of days in the reconstruction assay as in the original resistance assay. Clones that mutated after exposure to ciprofloxacin were defined as clones that formed colonies earlier than in the original resistance assay [1].
The rate of ciprofloxacin resistance was defined as the number of ciprofloxacin-resistant mutants per viable cell that evolve as a function of time. […]

[4] = test system: ATCC25922 cells; assay: Neutropenic murine bacterial thigh infection model; type: in vivo, Escherichia coli; settings: mice treated only with ciprofloxacin 1 mg/kg s.c.; after 72 hours of infection
Description: Six-eight week-old, specific-pathogen-free, female CD-1 mice (weight, 25-35 g) were rendered neutropenic by intraperitoneal injection with 150 mg/kg cylcophosphamide (Sigma) four days before infection and 100 mg/kg cyclophosphamide 24 hours before infection. LB broth cultures inoculated from fresh ATCC25922 colonies and cells were grown to the log phase (OD600 of approximately 0.3) and diluted 1:1000 in LB broth. Thigh infections were produced by injecting 50 μl (approximately 10^6 CFUs) of diluted cultures into halothane-anesthetized mice. One group of mice was administrated inteperitoneal injection of 4,4-Fe-PcTs in conjunction with the second dose of cyclophosphamide (24 hours prior infection) (4,4-Fe-PcTs (pre)+CFX). Starting two hours after infection (defined as time zero), mice were administered subcutaneous injections of either 1 mg/kg ciprofloxacin alone (CFX) or co-treatment of 1 mg/kg ciprofloxacin with interperitoneal injection of 10 mg/kg 4,4-Fe-PcTs (4,4-Fe-PcTs+CFX and 4,4-Fe-PcTs (pre)+CFX) every 24 hours for 3 days. After 48 and 72 hours, three mice from each group were sacrificed, and their thighs removed and homogenized to determine the number of viable bacterial cells for both ciprofloxacin-sensitive and ciprofloxacin-resistant ATCC25922 cells. Serial dilutions of homogenates of the infected thigh were plated on LB agar (CFX Sensitive) and LB agar plates containing ciprofloxacin (40 nM) (CFX Resistant) to count viable cells for each of the three treatment groups.

[5] = test system: bacteria / ΔrecA bacterial strain; settings: cited from earlier work
[6] = target: DltA (Bacillus cereus, UniProt Q81G39); assay: DltA control for specificity of ATPase inhibition; type: biochemical; settings: DltA assayed in the presence of 3,4-Cu-PcTs
Description: DltA catalyzes the breakdown of ATP into AMP and pyrophosphate, which is further broken down by yeast pyrophosphatase into phosphate for quantification. Results are the average of two independent experiments where the deviation was less than 10%.

[7] = target: T1, EcRecA (Escherichia coli, UniProt P0A7G6); settings: gel shift; 0, 10, 100 μM
Description: EcRecA (4 μM), a 1.0-kb double-stranded DNA (dsDNA) PCR product (12 μM in base pairs), and indicated concentrations of 4,4-Fe-PcTs or 3,4-Cu-PcTs were incubated in binding buffer (5 mM MgAc2, 50 mM Tris-Hepes at pH 7.6) for 10 minutes at 37° C. EcRecA bound (slower migrating) and unbound dsDNA were resolved using a 1.0% agarose gel. The gel was stained with ethidium bromide and the fluorescence emission in the gel was recorded using a Kodak GelLogic 200 system.

[8] = target: T1, EcRecA; settings: in presence of ATPγS
Description: EcRecA (5 μM) was incubated with indicated concentrations of 4,4-Fe-PcTs or 3,4-Cu-PcTs in strand exchange buffer (2 mM ATP-γ-S(Sigma-Aldrich), 10 mM MgAc2, 100 mM KAc, 50 mM Hepes-Tris buffer at pH 7.6, 0.1% v/v 2-mercaptoethanol) for 10 minutes at 37° C. FAM43 (0.35 μM) was added and the reaction was incubated for 2 minutes. The reaction was started by the addition of 0.35 μM of the dsDNA substrate (annealing product of equimolar oligonucleotides 45A and 55A). The reaction was stopped at 30 minutes by adding EDTA to a final concentration of 20 mM and trypsin to a final concentration of 1 μg/μl. After 10 minutes, 10 μl of the reaction was mixed with 5 μl of loading buffer (30% glycerol and 0.1% bromophenol blue) and products were resolved using a 20% native acrylamide gel. The fluorescence emission in the gel was recorded using a Kodak GelLogic 200 system.

[9] = target: EcRecA / EcLexA (Escherichia coli, UniProt P0A7G6); settings: in presence of ATPγS
Description: The LexA cleavage reaction (10 μl) contained 1 μM poly-(dT)45, 2 μM EcRecA, 10 μM EcLexA, 0.1 mM ATP-γ-S, 20 mM MgAc2, 50 mM Hepes-Tris at pH 7.6 and indicated concentrations of 4,4-Fe-PcTs or 3,4-Cu-PcTs. The reaction was incubated for 120 minutes at 21° C. and stopped by the addition of 5 μl of loading buffer (30% glycerol, 10% SDS, 0.2 M Tris-HCl at pH 6.8, 0.1% v/v 2-mercaptoethanol and 0.1% w/v bromophenol blue). The products were resolved using a 13% SDS-polyacrylamide gel. The proteins were stained with Coomassie Blue-R250.

[10] = target: T2, RecA (Escherichia coli, UniProt P0A7G6)
Description: RecA (5 μM) and 3,4-Cu-PcTs (50 μM) were incubated in 0.15 M NaCl and 0.05 M Tris-HCl buffer at pH 7.4. The protein complexes were resolved by loading 2 ml of RecA/3,4-Cu-PcTs on a Pharmacia sephacryl S-300 column pre-equilibrated with the running buffer. The size exclusion column was calibrated with standard proteins with molecular weights of 35, 67, and 167 KD. Elution of proteins off the size exclusion column was monitored using absorbance at 280 nm.
Target sequence in this assay (P0A7G6 whole entry): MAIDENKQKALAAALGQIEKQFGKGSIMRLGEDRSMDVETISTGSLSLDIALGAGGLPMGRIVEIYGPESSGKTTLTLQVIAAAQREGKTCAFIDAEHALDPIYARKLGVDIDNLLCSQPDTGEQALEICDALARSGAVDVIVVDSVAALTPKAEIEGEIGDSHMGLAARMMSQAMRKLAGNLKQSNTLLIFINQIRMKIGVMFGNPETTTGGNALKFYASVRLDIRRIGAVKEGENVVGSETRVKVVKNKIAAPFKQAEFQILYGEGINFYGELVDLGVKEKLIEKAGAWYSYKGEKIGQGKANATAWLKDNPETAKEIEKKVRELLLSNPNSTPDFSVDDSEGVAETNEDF

[11] = target: T1, EcRecA; settings: compound 10 μM; poly-(dT)36-stimulated; relative to reaction without inhibitor
Description: An ATPase assay [18] was used to screen a set of commercially available anionic, aromatic molecules for inhibitors of RecA ATPase activity. The release of inorganic phosphate by ATP hydrolysis was monitored using a Malachite Green phosphate assay [18]. The ssDNA-dependent ATPase reaction contained 1 μM EcRecA, 6 μM ssDNA (poly-(dT)36, concentration in nucleotides), 5 mM ATP, 50 mM Tris-Hepes buffer at pH 7.4, 10 mM MgCl2, 0.1% v/v 2-mercaptoethanol, and indicated amounts of 4,4-Fe-PcTs or 3,4-Cu-PcTs. Phosphate levels were measured by transferring 25 μl of ATPase reaction to 475 μl of malachite green phosphate assay, which contained 0.033% w/v Malachite Green, 1.3% w/v ammonium molybdate. 1.0 M HCl was used to monitor the release of inorganic phosphate by ATP hydrolysis [18]. The green complex formed between Malachite Green, molybdate, and free orthophosphate was measured by recording the absorbance at 620 nm.
Results are the average of two independent experiments where the deviation was less than 10%.

[12] = target: T1, EcRecA; settings: gel shift; 0, 10, 100 μM; remark: listed apart in the source
[13] = target: T2, RecA; settings: 3,4-Cu-PcTs 3.75 μM; RecA 3.5 μM; AMPPNP
Target sequence in this assay (P0A7G6 2-353): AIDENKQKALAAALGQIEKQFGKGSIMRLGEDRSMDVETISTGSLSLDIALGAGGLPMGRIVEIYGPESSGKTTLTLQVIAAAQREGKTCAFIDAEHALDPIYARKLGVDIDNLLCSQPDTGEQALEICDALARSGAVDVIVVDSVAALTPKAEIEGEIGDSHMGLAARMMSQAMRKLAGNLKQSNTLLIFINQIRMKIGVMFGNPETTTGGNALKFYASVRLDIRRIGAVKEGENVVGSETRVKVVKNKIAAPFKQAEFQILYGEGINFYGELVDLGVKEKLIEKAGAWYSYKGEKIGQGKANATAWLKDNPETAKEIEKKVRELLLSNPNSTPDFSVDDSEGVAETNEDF
Description: RecA-dsDNA-AMPPNP complexes formed by incubating RecA (3.5 μM), calf thymus dsDNA (Sigma) at a 40 dsDNA:1 RecA ratio (w/w), AMP-PNP (adenosine 5′-(β,γ-imido)triphosphate) (Sigma) (1.3 mM), MgAc2 (Sigma) (2 mM), triethanolamine-HCl (Fisher) buffer (25 mM, pH 7.2) with or without 3,4-Cu-PcTs (3.75 μM) at 37° C. for 10 minutes. Samples were applied to carbon-coated grids and stained with 2% uranyl acetate (w/v). Images were recorded on film with a Tecnai 12 electron microscope operating at 80 keV with a nominal magnification of 30,000×. Negatives were scanned with a Nikon Coolscan 8000 densitometer at a raster of 4.2 Å/pixel.

[14] = target: MvRadA (Methanococcus voltae, UniProt O73948); settings: cited from earlier work
[15] = target: T2, RecA; settings: cited from earlier work
Target sequence in this assay (P0A7G6 2-353): as above

[16] = test system: SOS response (E. coli strain SS996); assay: SOS induction, GFP regulated by the sulA SOS promoter, flow cytometry; type: cell-based, Escherichia coli; settings: KAN 43 μM, CAM 46 μM, TET 21 μM, SPECT 808 μM; three hours
Description: To confirm that the bactericidal antibiotic potentiating activity of 4,4-Fe-PcTs was correlated with reduced SOS induction, SOS induction in the E. coli strain SS996 was monitored. This strain contains a green fluorescent protein (GFP) regulated by the sulA SOS promoter.
SS996 cultures were grown to an optical density at 600 nm (OD600) of 0.3. For cultures treated with 4,4-Fe-PcTs, the 4,4-Fe-PcTs was added to give a concentration of 25 μM and the culture was incubated for three hours at 37° C. Antibiotics were then added to yield concentrations of 2.5 μM (CFX), 40 μM (AMP), 43 μM (KAN), 21 μM (TET), 46 μM (CAM), or 808 μM (SPECT). Samples (˜10^6 cells) were taken immediately before the addition of antibiotics (time zero) and every hour for three hours. Samples were washed once in PBS, and resuspended in PBS prior to analysis by flow cytometry. GFP expression was monitored using flow cytometer (Beckman Coulter, Inc.) with a 488 nm argon laser and a 515-545 nm emission. Flow cytometry data were analyzed using Flowjo (Tree Star, Inc.).

T1 sequence (P0A7G6 whole entry): as the sequence (P0A7G6 whole entry) above
EcRecA / EcLexA, sequence (P0A7G6 whole entry): as above
MvRadA, sequence (O73948 whole entry): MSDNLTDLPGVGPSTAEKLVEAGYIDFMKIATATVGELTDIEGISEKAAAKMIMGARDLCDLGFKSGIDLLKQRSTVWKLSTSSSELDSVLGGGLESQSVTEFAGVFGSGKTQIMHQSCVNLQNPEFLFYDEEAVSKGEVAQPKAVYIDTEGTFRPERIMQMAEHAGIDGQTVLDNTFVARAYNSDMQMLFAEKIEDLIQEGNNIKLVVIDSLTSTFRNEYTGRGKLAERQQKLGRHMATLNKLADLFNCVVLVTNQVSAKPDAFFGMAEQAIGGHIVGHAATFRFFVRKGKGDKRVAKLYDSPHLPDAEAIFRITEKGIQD
DltA, sequence (Q81G39 whole entry): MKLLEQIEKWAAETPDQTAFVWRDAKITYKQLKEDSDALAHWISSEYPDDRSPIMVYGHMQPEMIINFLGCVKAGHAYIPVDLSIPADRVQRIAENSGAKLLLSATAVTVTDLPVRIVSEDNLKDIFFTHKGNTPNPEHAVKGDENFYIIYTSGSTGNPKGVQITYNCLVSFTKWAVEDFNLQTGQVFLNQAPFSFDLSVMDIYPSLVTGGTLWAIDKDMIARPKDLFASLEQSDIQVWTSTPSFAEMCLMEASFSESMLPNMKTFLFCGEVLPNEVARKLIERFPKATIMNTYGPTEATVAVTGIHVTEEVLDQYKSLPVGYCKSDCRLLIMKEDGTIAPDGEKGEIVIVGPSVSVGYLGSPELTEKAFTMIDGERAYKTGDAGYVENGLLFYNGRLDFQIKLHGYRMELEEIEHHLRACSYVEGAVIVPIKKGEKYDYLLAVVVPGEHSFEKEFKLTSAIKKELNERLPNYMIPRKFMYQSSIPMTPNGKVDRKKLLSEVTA

Compound: zinc (II) phthalocyanine tetrasulfonic acid [Zn-PcTs]
- decrease in CFUs relative to ciprofloxacin treatment alone ([1]; 24 hours): ~100 fold

Compound: copper phthalocyanine-tetrasulfonic acid [Cu-PcTs]
- decrease in CFUs relative to ciprofloxacin treatment alone ([1]; 24 hours): ~100 fold

Compound: O=C(O)c1cn(C2CC2)c2cc(N3CCNCC3)c(F)cc2c1=O [ciprofloxacin, ciprofloxacin hydrochloride, reference compound]
- sensitivity of ATCC27853 to ciprofloxacin compared with gram-positive strains [2]: less sensitive to ciprofloxacin than the two gram-positive strains
- ciprofloxacin-resistant cells over time ([3]; cells treated with only ciprofloxacin): spike in ciprofloxacin-resistant cells at day 5
- ciprofloxacin-resistant colonies caused by pre-existing mutations ([3]; ciprofloxacin-alone (40 nM)): 29%
- ciprofloxacin-resistant cells in thigh [4]: Approximately 50,000 cells

Compound: CO[C@H]1/C=C/O[C@@]2(C)Oc3c(C)c(O)c4c(O)c(cc(O)c4c3C2=O)NC(=O)/C(C)=C\C=C\[C@H](C)[C@H](O)[C@@H](C)[C@@H](O)[C@@H](C)[C@H](OC(C)=O)[C@@H]1C [Rifamycin, rifamycin]
- SOS response and killing of bacteria ([5]; bacteria with RecA): activates the SOS response, but does not kill bacteria
- activity in ΔrecA bacterial strain ([5]; ΔrecA bacterial strain): shows bactericidal activity

Compound: nickel (II) phthalocyanine-tetrasulfonic acid [Ni-PcTs]
- decrease in CFUs relative to ciprofloxacin treatment alone ([1]; 24 hours): ~100 fold

Compound: copper phthalocyanine-3,4′,4″,4′″-tetrasulfonic acid tetrasodium salt [3,4-Cu-PcTs]
- specificity of ATPase inhibition (DltA control) [6]: specific for inhibiting RecA ATPase activity
- potentiation of ciprofloxacin activity ([1]; ciprofloxacin 40 nM): potentiated the activity of ciprofloxacin
- colony forming units (CFUs) ([1]; co-treated with ciprofloxacin 40 nM and compound at concentrations above 25 μM): no colony forming units (CFUs) were observed
- CFUs ([1]; compound 25 μM plus ciprofloxacin 40 nM, 24 hours): no CFUs were observed
- inhibition of RecA dsDNA-binding activity [7]: in the micromolar range
- inhibition of DNA strand-exchange [8]: inhibited
- inhibition of LexA cleavage [9]: inhibited
- effect on molecular weight (oligomeric state) of RecA complex ([10]; 3,4-Cu-PcTs 50 μM, RecA 5 μM): reduced the molecular weight of the RecA complex to a size consistent to the RecA ring-shaped hexamer storage complex
- elution size of 3,4-Cu-PcTs/RecA complex ([10]; pre-incubation with 3,4-Cu-PcTs 50 μM, RecA alone eluted near the void volume): ~200 KD
- inhibition of EcRecA ATPase activity [11]: high degree of inhibition
- inhibition of RecA ssDNA-binding activity [12]: in the micromolar range
- effect on RecA filament formation [13]: inhibited

Compound: aluminum (III) phthalocyanine chloride tetrasulfonic acid [Al-PcTs]
- decrease in CFUs relative to ciprofloxacin treatment alone ([1]; 24 hours): ~100 fold

Compound: metatungstate (W12O40^6−)
- MvRadA ATPase, DNA-binding, and DNA strand-exchange activities [14]: inhibited
- inhibition of RecA activity within E. coli cells [15]: unable to inhibit

Compound: phthalocyanine tetrasulfonic acid [H-PcTs]
- decrease in CFUs relative to ciprofloxacin treatment alone ([1]; 24 hours): ~100 fold

Compound: O=C(N[C@H](CO)[C@H](O)c1ccc([N+](=O)[O-])cc1)C(Cl)Cl [chloramphenicol]
- induction of SOS-GFP reporter by antibiotic alone [16]: only very low levels of GFP expression

Compound: NC[C@H]1O[C@H](O[C@H]2[C@H](O)[C@@H](O[C@H]3O[C@H](CO)[C@@H](O)[C@H](N)[C@H]3O)[C@H](N)C[C@@H]2N)[C@H](O)[C@@H](O)[C@@H]1O [Kanamycin, kanamycin monosulfate]
- induction of SOS-GFP reporter by antibiotic alone [16]: did not induce the SOS-GFP reporter

Compound: CN[C@@H]1[C@H](O)[C@H](NC)[C@H]2O[C@@]3(O)C(=O)C[C@@H](C)O[C@H]3O[C@@H]2[C@H]1O [spectinomycin, spectinomycin dihydrochloride]
- induction of SOS-GFP reporter by antibiotic alone [16]: only very low levels of GFP expression
